# Legend:
# [1] = Stability tests of FPD at 40° C. and 75% Rh (tests S1-S5, HBS1-HBS3), out of […]; type: physicochemical; conditions: conclusion of the tests
# [2] = bronchodilator; cited from earlier work
SMILES,Sensitivity to moisture [1],Duration of action [2]
C[N+]1(C)[C@@H]2C[C@@H](OC(=O)C(O)(c3cccs3)c3cccs3)C[C@H]1[C@@H]1O[C@@H]12 [tiotropium],extremely sensitive to moisture,–
C[N+]1(C)[C@@H]2C[C@@H](OC(=O)C(O)(c3cccs3)c3cccs3)C[C@H]1[C@@H]1O[C@@H]12 [tiotropium bromide],–,up to 24 hours
